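Results reflect a 48-hour exposure of cells in 96-well plates to compound at five concentrations. GI50 is the concentration that inhibits growth by half.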 Activity calls are given as the source filed them. Rule as the data show it: active = GI50 up to about 1.1 µM and inactive = higher.
What was measured:
Test in all cases: DTP human tumour cell line panel, 48 h
M14 = tested on: M14
KM-20L2 = tested on: KM-20L2
LOX IMVI = tested on: LOX IMVI
MOLT-4 = tested on: MOLT-4
SF-295 = tested on: SF-295
COLO 205 = tested on: COLO 205
OVCAR-4 = tested on: OVCAR-4
NCI-H226 = tested on: NCI-H226
SNB-19 = tested on: SNB-19
SK-MEL-5 = tested on: SK-MEL-5
CCRF-CEM = tested on: CCRF-CEM
786-0 = tested on: 786-0
UO-31 = tested on: UO-31
NCI-H23 = tested on: NCI-H23
IGROV-1 = tested on: IGROV-1
KM12 = tested on: KM12
CAKI-1 = tested on: CAKI-1
NCI-H522 = tested on: NCI-H522
HCC 2998 = tested on: HCC 2998
MDA-N = tested on: MDA-N

Measured: GI50

Cn1c(=O)c2c3ccccc3c(C(=O)c3ccccc3)n2c2ccccc21
inactive: M14 8.55 µM | KM-20L2 3.8 µM | LOX IMVI 9.64 µM | MOLT-4 3.94 µM | SF-295 5.69 µM | COLO 205 5.51 µM | OVCAR-4 22.6 µM | NCI-H226 > 56.1 µM | SNB-19 > 43.3 µM | SK-MEL-5 6.08 µM | CCRF-CEM 9.82 µM | 786-0 10.3 µM | UO-31 > 52.7 µM | NCI-H23 23.3 µM | IGROV-1 > 100 µM | KM12 2.44 µM | CAKI-1 > 26.8 µM | NCI-H522 3.33 µM

CSC(=N)N1N=C2c3ccccc3CC[C@@H]2[C@@H]1c1ccccc1
inactive: M14 13.2 µM | KM-20L2 12 µM | LOX IMVI 14.5 µM | MOLT-4 9.71 µM | SF-295 14.4 µM | COLO 205 13.1 µM | OVCAR-4 14.8 µM | HCC 2998 15 µM | NCI-H226 9.73 µM | SNB-19 16.4 µM | CCRF-CEM 19.3 µM | 786-0 12.9 µM | UO-31 9.64 µM | NCI-H23 15.2 µM | IGROV-1 14.5 µM | KM12 14.4 µM | NCI-H522 14.2 µM

Oc1cccc2c1NC1=C(CCC/C1=C\c1ccccc1)C2
inactive: M14 33.5 µM | KM-20L2 52.6 µM | LOX IMVI 73.3 µM | MOLT-4 34.8 µM | SF-295 71.8 µM | COLO 205 > 100 µM | HCC 2998 49.3 µM | NCI-H226 > 100 µM | SNB-19 > 100 µM | SK-MEL-5 > 100 µM | CCRF-CEM 37.3 µM | 786-0 > 100 µM | UO-31 51.2 µM | NCI-H23 58.2 µM | IGROV-1 > 100 µM | KM12 > 100 µM | NCI-H522 11 µM

Cc1cc2c(=O)cc(-c3ccncc3)oc2c(C(=O)O)c1C
inactive: KM-20L2 > 100 µM | LOX IMVI > 100 µM | MOLT-4 > 100 µM | SF-295 > 100 µM | COLO 205 > 100 µM | HCC 2998 > 100 µM | NCI-H226 > 100 µM | SNB-19 > 100 µM | CCRF-CEM > 100 µM | 786-0 > 100 µM | UO-31 > 100 µM | NCI-H23 > 100 µM | IGROV-1 > 100 µM

COC(=O)C(=O)C(C(=O)C(=O)Nc1ccc([N+](=O)[O-])cc1)c1nc2ccccc2nc1O (stereo not drawn)
inactive: M14 42.2 µM | KM-20L2 22.1 µM | LOX IMVI > 100 µM | MOLT-4 > 100 µM | COLO 205 > 100 µM | OVCAR-4 > 100 µM | NCI-H226 > 100 µM | SNB-19 > 100 µM | SK-MEL-5 43.6 µM | CCRF-CEM > 100 µM | 786-0 > 100 µM | UO-31 > 100 µM | NCI-H23 > 100 µM | IGROV-1 > 100 µM | KM12 57.3 µM | CAKI-1 53.2 µM | NCI-H522 > 100 µM

Cc1ccc(NC(=O)CC(=O)n2nc(-c3ccccc3)c(/N=N/c3ccc(Cl)cc3)c2-c2ccccc2)cc1
inactive: M14 > 100 µM | KM-20L2 49.9 µM | LOX IMVI 15.6 µM | MOLT-4 83.9 µM | SF-295 58.9 µM | COLO 205 35 µM | OVCAR-4 23.3 µM | HCC 2998 84.5 µM | NCI-H226 > 100 µM | SNB-19 42.6 µM | SK-MEL-5 > 100 µM | CCRF-CEM 24.4 µM | 786-0 21.1 µM | UO-31 > 100 µM | NCI-H23 58.1 µM | IGROV-1 57.7 µM | KM12 36.5 µM | CAKI-1 > 100 µM

C#C[C@]1(O)CCCC2=CC(=O)CC[C@@]21C
inactive: M14 > 100 µM | KM-20L2 > 100 µM | MOLT-4 > 100 µM | SF-295 > 100 µM | COLO 205 > 100 µM | HCC 2998 > 100 µM | NCI-H226 > 100 µM | SNB-19 > 100 µM | SK-MEL-5 > 100 µM | CCRF-CEM > 100 µM | 786-0 > 100 µM | UO-31 > 100 µM | NCI-H23 > 100 µM | IGROV-1 > 100 µM | KM12 > 100 µM | NCI-H522 > 100 µM

OC1CN(OC/C=C/c2ccccc2)CC(O)C1O (stereo not drawn)
inactive: M14 > 100 µM | KM-20L2 > 100 µM | LOX IMVI 46.1 µM | MOLT-4 > 100 µM | SF-295 > 100 µM | COLO 205 > 100 µM | OVCAR-4 > 100 µM | HCC 2998 > 100 µM | NCI-H226 > 100 µM | SNB-19 > 100 µM | SK-MEL-5 > 100 µM | CCRF-CEM > 100 µM | 786-0 21.1 µM | UO-31 > 100 µM | NCI-H23 > 100 µM | IGROV-1 > 100 µM | KM12 72.3 µM | CAKI-1 > 100 µM

NC(CCSCCF)C(=O)O (stereo not drawn)
inactive: M14 > 100 µM | KM-20L2 > 100 µM | LOX IMVI > 100 µM | MOLT-4 > 100 µM | COLO 205 > 100 µM | OVCAR-4 > 100 µM | NCI-H226 > 100 µM | SNB-19 > 100 µM | CCRF-CEM > 100 µM | 786-0 > 100 µM | UO-31 > 100 µM | NCI-H23 > 100 µM | IGROV-1 > 100 µM | KM12 > 100 µM | CAKI-1 > 100 µM | NCI-H522 > 100 µM

c1ccc([P+](Cc2ccc(C[P+](c3ccccc3)(c3ccccc3)c3ccccc3)cc2)(c2ccccc2)c2ccccc2)cc1
inactive: M14 58.2 µM | LOX IMVI 14.6 µM | MOLT-4 > 100 µM | SF-295 35.6 µM | COLO 205 31.2 µM | OVCAR-4 48.1 µM | HCC 2998 91 µM | NCI-H226 > 100 µM | MDA-N 31 µM | SNB-19 26.4 µM | SK-MEL-5 27.2 µM | CCRF-CEM 71 µM | 786-0 47.5 µM | UO-31 18.4 µM | NCI-H23 32.7 µM | IGROV-1 20.4 µM | KM12 41.8 µM | CAKI-1 > 100 µM | NCI-H522 62.2 µM

C=CC(C1=CC(=O)C(OC)=CC1=O)c1ccccc1 (stereo not drawn) [4-METHOXYDALBERGIONE]
inactive: M14 17.9 µM | LOX IMVI 16.2 µM | MOLT-4 2.16 µM | SF-295 12.2 µM | COLO 205 18.9 µM | OVCAR-4 14.7 µM | HCC 2998 16.7 µM | NCI-H226 17.1 µM | MDA-N 13.8 µM | SNB-19 15.8 µM | SK-MEL-5 16.3 µM | CCRF-CEM 1.91 µM | 786-0 14.1 µM | UO-31 15.9 µM | NCI-H23 16.1 µM | IGROV-1 16.4 µM | KM12 15.7 µM | CAKI-1 17.2 µM | NCI-H522 6.93 µM

From ChEMBL document CHEMBL1201862, “PubChem BioAssay data set” (2004)
